# From patent publication EP0198172A1, “Pharmaceutical preparation” (HERMES Fabrik pharmazeutischer Präparate Franz Gradinger …, priority 1985, dated 1986)
# Test system: Patienten
# Test: Double-blind crossover clinical study, impedance cardiography (I.C.) in six patients
# Format: in vivo, Menschen
# From the text: Im folgenden werden klinische Versuche am Menschen beschrieben, die die Wirkungen der erfindungsgemäßen pharmazeutischen Zubereitung zeigen: • Tabelle 1 zeigt in schematischer Darstellung eine Doppel-Blind-Studie mit der erfindungsgemäßen pharmazeutischen Zubereitung.
# Dabei bedeutet "I.C."Impedanz Cardiographie.
# Zur Durchführung der Impedanz Cardiographie wird insbesondere verwiesen auf "Biomedical and clinical aspects for coenzyme Q, Volume 1 (1977) Volume 2 (1980), Volume 3 (1981), Volume 4 (1984), Elsevier/North-Holland Biomedical Press, Amsterdam-New York-Oxford" und auf Lee E. Baker (ebenda, Vol. 2,.Seite 289) und schließlich W.G. Kubicek, Aerospace Med. 37 (12), 1208, 1966.
# Die Wirkungen der erfindungsgemäßen pharmazeutischen Zubereitung auf das Herz-Schlag-Volumen (SV), das Herz-Zeit-Volumen (CO) und den Heather Index (HI) von sechs Patienten wurden ermittelt und in der folgenden Tabelle 2 zusammengestellt.
# Den sechs Patienten wurden gemäß Tabelle II gegeben: • CoQ10 : 3 x 33 mg = 99 mg täglich • Placebo : Oleum arachidis Vol.(eine Kapsel 0,5 ml) • CoQ10 + Vitamin E : (3 x 33 mg) + (3 x 100 mg) zusammen in 3 Kapseln täglich gelöst in Oleum arachidis • Vitamin E : 3 x 100 mg täglich (= 3 Kapseln . täglich). [formula]
# [1] = oral capsules daily, impedance cardiography, result in words
smiles,measurement,setting,value
"COC1=C(OC)C(=O)C(C/C=C(\C)CC/C=C(\C)CC/C=C(\C)CC/C=C(\C)CC/C=C(\C)CC/C=C(\C)CC/C=C(\C)CC/C=C(\C)CC/C=C(\C)CCC=C(C)C)=C(C)C1=O [CoQ10, 2.3-Dimethoxy-5-methyl-1.4-benzochinon mit einer isoprenoiden Seitenkette, mit 10 Dihydroisopren-Einheiten]",Steigerung des Herzminutenvolumens (CO),"oral capsules daily (CoQ10 3 x 33 mg; combination 3 x 33 mg + 3 x 100 mg Vitamin E), versus controls, placebo and Vitamin E alone",~20%
same,Heather Index (HI),[1],Ähnliches gilt
same,Schlagvolumen (SV),[1],Ähnliches gilt
